Data taken from ChEMBL document CHEMBL1795343, “SAR of 2-amino and 2,4-diamino pyrimidines with in vivo efficacy against Trypanosoma brucei” (Bioorg Med Chem Lett, 2011).
In brackets after ≈: the same amount, converted by molar mass.

How the values were obtained:
L929 = experiment: Cytotoxicity against mouse L929 cells; assay type: cell-based
[1] = Aqueous solubility of the compound; assay type: physicochemical; details: buffer
[2] = system: Trypanosoma brucei brucei; experiment: Antitrypanosomal activity against Trypanosoma brucei brucei; assay type: functional, organism-based
[3] = Half life in S9 microsomes; assay type: ADME, subcellular, S9 fraction
[4] = system: Trypanosoma brucei brucei; experiment: Antitrypanosomal activity against Trypanosoma brucei brucei infected in nonCNS acute HAT mouse model assessed as cure rate at 20 mg/kg, ip administered after 30 days; assay type: functional; details: route intraperitoneal
MDCK [5] = experiment: Permeability of the compound across MDCK cells expressing human MDR1; assay type: ADME, cell-based, Canis lupus familiaris; details: dog
[6] = system: Trypanosoma brucei brucei; experiment: Antitrypanosomal activity against Trypanosoma brucei brucei infected in nonCNS acute HAT mouse model assessed as cure rate at 20 mg/kg, po administered after 30 days; assay type: functional
MDR1 (P-gp) = experiment: Apparent permeability of the compound across MDCK cells expressing human MDR1 in absence of P-gp inhibitor GF120918; assay type: ADME, cell-based, Canis lupus familiaris; details: dog
[7] = system: Trypanosoma brucei brucei; experiment: Antitrypanosomal activity against Trypanosoma brucei brucei in nonCNS acute HAT mouse model assessed as cure rate; assay type: functional
MDCK [8] = experiment: Absorption quotient of the compound across MDCK cells expressing human MDR1; assay type: ADME, cell-based, Canis lupus familiaris; details: dog

IC50 [2] [nM] | half-life [3] [h] | Structure (SMILES) | IC50 (L929) [nM] | further results
340 | 0.533 | COc1ccccc1C(=O)c1cnc(NC2CCN(C(=O)Cc3ccccc3)CC2)nc1N | 20000 | solubility [1]: 6 µM (≈ 2.67 µg/mL)
130 |  | COc1ccccc1C(=O)c1cnc(NC2CCN(C(=O)Nc3ccccc3F)CC2)nc1N | 4100 | 
190 |  | COc1ccccc1NC(=O)N1CCC(Nc2ncc(C(=O)c3ccccc3OC)c(N)n2)CC1 | 1200 | 
360 |  | COc1ccc(NC(=O)N2CCC(Nc3ncc(C(=O)c4ccccc4OC)c(N)n3)CC2)cc1 | 3400 | 
65 | 2.53 | COc1ccccc1C(=O)c1cnc(NC2CCN(C(=O)Nc3ccc(F)cc3)CC2)nc1N | 4600 | solubility [1]: 25 µM (≈ 11.6 µg/mL)
43 | 2.82 | COc1ccccc1C(=O)c1cnc(NC2CCN(C(=O)Nc3cccc(F)c3)CC2)nc1N | 9300 | solubility [1]: 13 µM (≈ 6.04 µg/mL)
110 |  | COc1ccccc1C(=O)c1cnc(NC2CCN(C(=O)Nc3cccc(C)c3)CC2)nc1N | 7100 | 
260 |  | CCOc1ccccc1C(=O)c1cnc(NC2CCN(C(=O)Nc3ccccc3)CC2)nc1N |  | 
290 |  | COc1cccc(NC(=O)N2CCC(Nc3ncc(C(=O)c4ccccc4OC)c(N)n3)CC2)c1 | 6900 | 
45 | 1.6 | COc1ccccc1C(=O)c1cnc(NC2CCN(C(=O)Nc3ccccc3)CC2)nc1N | 7500 | solubility [1]: 25 µM (≈ 11.2 µg/mL); Activity [4]: 100%; Papp (MDR1 (P-gp)): 15.1 ×10⁻⁶ cm/s; permeability (MDCK [5]): impermeable; AQ (MDCK [8]): 0.63; Activity [6]: 100%
110 |  | COc1ccccc1C(=O)c1cnc(NC2CCN(C(=O)Nc3ccc(C)cc3)CC2)nc1N | 2900 | 
30 |  | COc1ccc(F)cc1C(=O)c1cnc(NC2CCN(C(=O)Nc3ccccc3)CC2)nc1N |  | 
410 |  | COc1ccccc1C(=O)c1cnc(NC2CCN(C(=O)Nc3ccccc3C)CC2)nc1N | 10000 | 

Continued, molecule first:

Structure (SMILES) | IC50 [2] [nM] | half-life [3] [h] | IC50 (L929) [nM] | further results
COc1ccccc1C(=O)c1cnc(NC2CCN(S(C)(=O)=O)CC2)nc1N | 660 | > 5.83 | 11000 | solubility [1]: 50 µM (≈ 20.3 µg/mL); Activity [4]: 100%; permeability (MDCK [5]): impermeable; Activity [6]: 100%
COc1ccc(C(=O)c2cnc(NC3CCN(S(C)(=O)=O)CC3)nc2N)cc1 | > 12000 |  |  | 
COc1ccccc1C(=O)c1cnc(NC2CCNCC2)nc1N | > 14000 |  |  | 
COc1ccccc1C(=O)c1cnc(NC2CCN(c3nc4ccccc4n3C)CC2)nc1N | 1530 |  | > 22000 | 
COc1ccc(F)cc1C(=O)c1cnc(NC2CCN(S(C)(=O)=O)CC2)nc1 | 570 |  |  | Papp (MDR1 (P-gp)): 56.1 ×10⁻⁶ cm/s; Activity [7]: 66%; AQ (MDCK [8]): 0.18
Cc1ccccc1C(=O)c1cnc(NC2CCN(S(C)(=O)=O)CC2)nc1N | 1800 |  |  | 
COc1cccc(C(=O)c2cnc(NC3CCN(S(C)(=O)=O)CC3)nc2N)c1 | 10000 |  |  | 
COc1ccccc1C(=O)c1cnc(NC2CCN(C(=O)Nc3ccccc3)C2)nc1N (stereo not drawn) | 5500 |  | 13000 | 
COc1ccccc1C(=O)c1cnc(NCCCNC(=O)Nc2ccccc2)nc1N | 4500 |  | 11000 | 
COc1ccccc1C(=O)c1cnc(NC2CCN(c3nccs3)CC2)nc1N | 3100 |  | > 24000 | 
COc1ccccc1C(=O)c1cnc(N2CCN(C(=O)Nc3ccccc3)CC2)nc1N | > 12000 |  | > 27000 | 
COc1ccccc1C(=O)c1cnc(NC2CCN(C(=O)Nc3ccccc3)CC2)nc1 | 330 | 2.8 |  | Papp (MDR1 (P-gp)): 39.8 ×10⁻⁶ cm/s; Activity [7]: 33%; AQ (MDCK [8]): 0.14
CCc1ccccc1C(=O)c1cnc(NC2CCN(C(=O)Nc3ccccc3)CC2)nc1N | 170 |  |  | 
COc1ccccc1C(=O)c1cnc(NC2CCN(C(C)=O)CC2)nc1N | 3300 |  | > 27000 | 
CS(=O)(=O)N1CCC(Nc2ncc(C(=O)c3ccccc3)c(N)n2)CC1 | 7400 |  |  | 
COc1ccccc1C(=O)c1cnc(NC2CCN(S(C)(=O)=O)CC2)nc1C | > 12000 | 7.23 |  | 
COc1ccccc1C(=O)c1cnc(NC2CCN(c3nc4ccccc4[nH]3)CC2)nc1N | 88 | 1.6 | 7600 | solubility [1]: 13 µM (≈ 5.77 µg/mL)
COc1ccccc1C(=O)c1cnc(N[C@H]2CC[C@@H](C(=O)Nc3ccccc3)CC2)nc1N | > 11000 |  | > 22000 | 
COc1ccccc1C(=O)c1cnc(NC2CCN(C(=O)Nc3ccccc3)CC2)nc1C | 1600 | 1.22 |  | 
COc1ccccc1C(=O)c1cnc(NC2CCN(c3nc4ccccc4[nH]3)CC2)nc1 | 310 | 0.75 |  | Papp (MDR1 (P-gp)): 11.4 ×10⁻⁶ cm/s; AQ (MDCK [8]): 0.77
COc1ccccc1C(=O)c1cnc(NC2CCN(c3nc4ccccc4s3)CC2)nc1N | 290 | 0.667 | 15000 | 
COc1ccccc1C(=O)c1cnc(NC2CCN(S(C)(=O)=O)CC2)nc1 | 1800 | 3.72 |  | 
COc1ccccc1C(=O)c1cnc(N[C@H]2CC[C@H](C(=O)Nc3ccccc3)CC2)nc1N | 4600 |  | 4600 | 
COc1ccc(F)cc1C(=O)c1cnc(NC2CCN(S(C)(=O)=O)CC2)nc1N | 170 | > 5.83 |  | Activity [4]: 100%; Papp (MDR1 (P-gp)): 27.2 ×10⁻⁶ cm/s; permeability (MDCK [5]): impermeable; AQ (MDCK [8]): 0.49; Activity [6]: 100%
COc1ccccc1C(=O)c1cnc(NC2CCN(S(=O)(=O)Cc3ccccc3)CC2)nc1N | 370 | 0.133 | 9100 | solubility [1]: 2 µM (≈ 0.963 µg/mL)
